Measurements from ChEMBL document CHEMBL1157539, “Thousands of chemical starting points for antimalarial lead identification” (Nature, 2010).

Each compound was assayed on Plasmodium falciparum (assay: GSK_TCMDC: Inhibition of Plasmodium falciparum 3D7 in whole erythrocytes, using parasite LDH activity as an index of growth.). Settings: Plasmodium falciparum, 3D7.
Type: functional, organism-based

| SMILES | XC50 |
| --- | --- |
| O=C1NC(=S)N/C1=C/C=C/c1ccc([N+](=O)[O-])o1 | 1070 nM |
| Cc1cc(N/N=C/c2ccc([N+](=O)[O-])cc2)c2ccc(F)cc2n1 | 888 nM |
| C#CCN1CCC2=C(C1)c1c(O)cc(C(C)CCCc3ccc(F)cc3)cc1OC2(C)C (stereo unspecified) | 731 nM |
| Cc1cc(=O)c(-c2ccc(Oc3ccc(OC(F)(F)F)cc3)cc2)c(C)[nH]1 | 363 nM |
| c1cncc(CCNCc2ccc(-c3ccc(CNC4Cc5ccccc5C4)cc3)cc2)c1 | 1090 nM |
| Cc1noc(C)c1S(=O)(=O)N(C)Cc1ccc(-c2ccc(Cl)cc2)o1 | 362 nM |
| CCOc1ccc(CN(CCc2ccc3c(c2)OCO3)Cc2cc(OC)ccc2O)cc1 | 753 nM |
| CC(=O)Nc1ccccc1OCc1cc2cc(C(=O)N3CCC(N4C(=O)OCc5ccccc54)CC3)ccc2o1 | 236 nM |
| CCN(CCCN1CCCCC1)c1cc(C)nc(Nc2cc(C(F)(F)F)ccc2C)n1 | 862 nM |
| NS(=O)(=O)CCc1cccc(Nc2nccc(-c3c(-c4cccc(NC(=O)c5c(F)cccc5F)c4)nn4ccccc34)n2)c1 | 58.4 nM |
| CNS(=O)(=O)c1ccc2c(c1)nc(C1CCN(CC3CCC(NC(=O)/C=C/c4ccc(Cl)c(Cl)c4)CC3)CC1)n2C (stereo unspecified) | 670 nM |
| O=C(NCCc1cccc(F)c1)c1ccc(N2CCN(c3ccncc3)CC2)cn1 | 1020 nM |
| CC(C)NCc1ccc(-c2ccc(NC(=O)c3cccc(Cl)c3)cc2)cc1 | 962 nM |
| COc1cc(NCCCNCc2cn(Cc3cc(Br)cc(Br)c3)c3ccccc23)nc2ccccc12 | 185 nM |
| O=C(Nc1cccc(C(F)(F)F)c1)c1cccc(S(=O)(=O)NCC2CCCN(Cc3ccccc3)C2)c1 (stereo unspecified) | 1100 nM |
| Clc1ccc(CNc2ccnc(NCc3ccc4c(c3)OCCCO4)n2)c(Cl)c1 | 994 nM |
| Cc1ccccc1OCC(O)CNC1CCC(NCC(O)COc2ccccc2C)CC1 (stereo unspecified) | 1190 nM |
| O=C(Nc1ccc(C(F)(F)F)cc1)c1cccc(S(=O)(=O)NCC2CCCN(CC3CCCCC3)C2)c1 (stereo unspecified) | 750 nM |
| Cc1cc(N[C@@H](Cc2ccccc2)C(=O)NCc2cccs2)nc(Nc2ccccc2)n1 | 1240 nM |
| CNCCCCCCc1ccc(CC(C)NCC(O)c2cccc(Cl)c2)cc1 (stereo unspecified) | 854 nM |
| CC(=O)Nc1ccc(CN2CCC(N(C)c3cc(NC(=O)c4cccc(F)c4)ccn3)CC2)cc1 | 1380 nM |
| Oc1cc(Nc2ccnc3cc(I)ccc23)c(F)cc1Cl | 832 nM |
| CN(CCCN(C)c1cc(NC(=O)c2cccc(F)c2)ccn1)Cc1cccc(O)c1 | 1920 nM |
| N#Cc1ccc(N(CCOC(=O)c2ccc(Br)s2)Cc2ccccc2C(F)(F)F)cc1C(F)(F)F | 1070 nM |

| SMILES | XC50 |
| --- | --- |
| NS(=O)(=O)c1cncc(-c2ccc3nccc(-c4cn[nH]c4)c3n2)c1 | 526 nM |
| CCCCCCN(C(=O)OCc1ccccc1)C1CCN(C(=O)OC(C)(C)C)CC1C(=O)OCC (stereo unspecified) | 366 nM |
| COCc1nc(N)nc(N)c1-c1ccc(Cl)c(Cl)c1 | 1020 nM |
| COc1cc(OC)nc(C(Sc2ccc(NC(=O)c3cccs3)cc2)c2ccccc2)n1 (stereo unspecified) | 57.5 nM |
| Cc1ccccc1C1CCN(C2CCC(NC(=O)c3cc4cc(Cl)ccc4o3)CC2)CC1 (stereo unspecified) | 1200 nM |
| COc1ccc2ncc(F)c(CCN3CCC4(CC3)COC(c3cc5c(cn3)OCCO5)=N4)c2n1 | 216 nM |
| Cc1cc(-c2nc3ccc(CN4CCN(C)CC4)cc3[nH]2)nn1Cc1cc(Cl)ccc1OCc1ccccc1 | 1120 nM |
| O=C(N[C@H]1CCN(Cc2ccc(OCCCN3CCCCC3)cc2)C1)c1ccc(Oc2ccccc2)cc1 | 784 nM |
| Cc1ccc2[nH]c(-c3ccc(C=CC(=O)NCc4ccc(Cl)c(Cl)c4)cc3)nc2c1 | 901 nM |
| Cc1cccc2nc(-c3ccc(-c4cccc(CN5CCCC(N)C5)c4)s3)[nH]c12 (stereo unspecified) | 539 nM |
| Cc1cccc(Nc2nc(C)cc(N3CCCN(CC4CCCCC4)CC3)n2)c1 | 1120 nM |
| COc1cc(Cc2cnc(N)nc2N)cc(OCc2cccc(C(=O)O)c2)c1OC | 835 nM |
| N#Cc1ccc(CNCCCCCCCNCc2ccc(-c3ccccc3)cc2)cc1 | 970 nM |
| Cc1cc(N(C)CCN(C)C)nc(Nc2ccc(Cl)cc2)n1 | 968 nM |
| CCCCOC(=O)C1=C(C)NC2=C(C(=O)CCC2)C1c1ccc(OC)c(Br)c1 (stereo unspecified) | 603 nM |
| COc1cc(NC(=O)/C=C/c2cccc3ccoc23)ccc1OCCN(C(C)C)C(C)C | 1040 nM |
| Cc1[nH]cnc1CSCCNC(=N)NCCCCCCCCNC(=N)NCCSCc1nc[nH]c1C | 268 nM |
| Cc1cccc(C)c1N1CCN(C2CCC(NC(=O)c3cc4ccccc4[nH]3)CC2)CC1 (stereo unspecified) | 601 nM |
| CC(Nc1ccc2c(c1)OCCO2)C(=O)Nc1cc(C(F)(F)F)ccc1N1CCOCC1 (stereo unspecified) | 408 nM |
| CN1CCCN(Cc2cccc(-c3ccc(NS(=O)(=O)c4cccc5cccnc45)cc3)c2)CC1 | 957 nM |
| FC(F)(F)c1ccc2[nH]c(-c3cccc(-c4ccc(CNCc5ccccc5)cc4)c3)nc2c1 | 163 nM |
| O=C(Nc1cccc(-c2ccc(CN3CCCC3)cc2)c1)c1cccc(Cl)c1 | 430 nM |
| CC1CC(C)CN(S(=O)(=O)c2cc(C(=O)Nc3cccc([N+](=O)[O-])c3)ccc2Br)C1 (stereo unspecified) | 898 nM |
| N#Cc1ccc(C(=O)Nc2cccc(-c3ccc(CN4CCCC4)cc3)c2)cc1 | 723 nM |

| SMILES | XC50 |
| --- | --- |
| CN(C)c1c(CNCCCCCCNCc2ccc3ccccc3c2N(C)C)ccc2ccccc12 | 463 nM |
| COc1ccccc1N1CCN(Cc2c(NC(C)=O)sc(C)c2C)CC1 | 425 nM |
| O=C(Cc1ccccc1)NC(CCN1CCC(N(C2CC2)S(=O)(=O)c2cccc(C(F)(F)F)c2)CC1)c1ccc(Cl)c(Cl)c1 (stereo unspecified) | 1270 nM |
| CCN(CC)CCNC(=O)c1ccc(NC(=O)c2cc3c(C)nn(-c4ccc(Cl)cc4)c3s2)cc1 | 253 nM |
| COc1ccccc1N(C)CCNc1cc(C)nc(Nc2ccc(C)cc2)n1 | 1570 nM |
| CCCCCC(C)C(C)c1cc(O)c2c3c(c(=O)oc2c1)CN(Cc1ccccc1)CC3 (stereo unspecified) | 605 nM |
| CC(C)C[C@H](NC(=O)c1cc2ccccc2s1)C(=O)N[C@H]1CCN(Cc2ccc(OCCCN(C)C)c(Cl)c2)C1 | 901 nM |
| COc1ccc2nccc([C@@H](O)CN3CCC(NCc4cc5oc(=O)[nH]c5cc4Cl)CC3)c2c1 | 380 nM |
| Fc1ccc2[nH]c(-c3cccc(-c4cccc(CNCc5cnn(-c6ccccc6)n5)c4)c3)nc2c1 | 971 nM |
| COc1ccc2nc3cc(Cl)ccc3c(Nc3ccc(C(=O)O)cc3)c2c1 | 301 nM |
| CS(=O)(=O)Cc1ccc(Nc2nccc(-c3c(-c4cccc(NC(=O)c5c(F)cccc5F)c4)nn4ccccc34)n2)cc1 | 150 nM |
| Cc1cc(OCCCN2CCN(CCN3CCOCC3)CC2)ccc1NC(=O)COc1ccc(Cl)cc1C(=O)c1cc(Cl)cc(C#N)c1 | 697 nM |
| C[C@@H](N)C#Cc1cc2c(Nc3ccc(OCc4cccc(F)c4)c(Cl)c3)ncnc2s1 | 1060 nM |
| CCC(CC)(Cc1ccccc1)NC(=O)[C@H](CC(C)C)Nc1ccc(C#N)c2ccccc12 | 913 nM |
| Cc1n[nH]c2cc(F)c(-c3cc(OC[C@@H](N)Cc4ccccc4)cnc3-c3ccoc3)cc12 | 1040 nM |
| CCOC(=O)NC1=NC(=N)N(OCCCOc2cc(Cl)c(Cl)cc2Cl)C(C)(C)N1 | 3.2 nM |
| Cc1nc(-c2cccc(C(F)(F)F)c2)n2nc(Nc3ccc(OCCN4CCCC4)cc3)ncc12 | 751 nM |
| N#Cc1ccc(-c2ccc(C(=O)NC3CCN(CCN4CCc5c(cccc5C(F)(F)F)C4)CC3)cc2)cc1 | 703 nM |
| O=C(Nc1cccc(-c2ccc(CN3CCC(O)CC3)cc2)c1)c1cccc(Cl)c1 | 764 nM |
| COc1ccc2nccc([C@@H](O)CN3CCC(NC(=O)Cc4cc5ccccc5s4)CC3)c2c1 | 906 nM |
| CCc1cn2c3c(cc(C(=O)N[C@@H](Cc4ccccc4)[C@H](O)CNC4CCOCC4)cc13)N(C(C)C)S(=O)(=O)CC2 | 83.6 nM |
| NC(=O)C1CCN(Cc2cccc(-c3cccc(-c4nc5cc(F)ccc5[nH]4)c3)c2)CC1 | 853 nM |
| CCOC(=O)c1nc2ccc(SC3CCCCC3)cn2c1Br | 1060 nM |
| CC1CN(c2cc(=O)n(Cc3ccc(NC(=O)Nc4ccc(-c5ccccc5)cc4)cc3)cn2)CC(C)N1 (stereo unspecified) | 974 nM |

| SMILES | XC50 |
| --- | --- |
| O=C(/C=C/c1ccc(Cl)c(Cl)c1)NCCCCCN1CCC(C(=O)Nc2cccc(Cl)c2)CC1 | 681 nM |
| COc1ccc(CCNCc2ccc3nc(N)cc(C)c3c2)cc1 | 214 nM |
| Cc1ccc(NC(=O)c2cccc(CN3CCCN(Cc4cccc(O)c4)CC3)c2)cc1C | 1040 nM |
| CC(C)CCCC(C)NC[C@@H](O)[C@H](Cc1ccccc1)NC(=O)c1cc(N2CCCC2=O)cc(N(c2ccccc2)S(C)(=O)=O)c1 (stereo partly specified) | 58.4 nM |
| N#Cc1ccc(-c2ccc(C(=O)NCCCCN3CCC(c4ccc5c(c4OCC(N)=O)CCCC5)CC3)nc2)cc1 | 730 nM |
| O=C(NCC1CCC(CNCCCc2ccccc2)CC1)Nc1ccc(Cl)c(Cl)c1 (stereo unspecified) | 767 nM |
| CN(C(=O)Cc1ccc(Cl)cc1)C1CCN(CCCCCNC(=O)/C=C/c2ccc(Cl)c(Cl)c2)CC1 | 719 nM |
| C=CCOC(=O)N1CCC(CNCc2cccc(-c3ccc(-c4nc5ccccc5[nH]4)s3)c2)C1 (stereo unspecified) | 272 nM |
| O=C(NCCCc1ccccc1)c1csc(C2CCCN(C(=O)c3ccc(O)c(-c4ccccc4)c3)C2)n1 (stereo unspecified) | 913 nM |
| c1ccc(CCNCc2ccc(-c3ccc(CNc4ccc5ncccc5c4)cc3)cc2)cc1 | 916 nM |
| Cc1[nH]c2ccccc2c1C1=CCN(CCCCCNC(=O)/C=C/c2ccc(Cl)c(Cl)c2)CC1 | 272 nM |
| Cc1cc(N2CCOCC2)nc(Nc2ccc(NC(=O)c3cccc4ccccc34)cc2)n1 | 1300 nM |
| O=C(NCc1ccccc1)NC1CCN(c2ccnc3cc(Cl)ccc23)C1 (stereo unspecified) | 158 nM |
| CC(C)Cn1ccc2c3c(N)nc(N)nc3ccc21 | 34.2 nM |
| C/C=C1/CN2CC[C@H]1C[C@H]2[C@H](O)c1ccnc2ccc(OC)cc12 | 199 nM |
| O=C(NCCc1ccc(F)cc1)c1ccc(N2CCN(c3ccncc3)CC2)nc1 | 1420 nM |
| O=c1cc(NCCCCNCc2cccc(Cl)c2)[nH]c2ccccc12 | 743 nM |
| Cc1cc2ncn(-c3nccc(NCc4ccc(F)cc4)n3)c2cc1C | 886 nM |
| Cc1cc(-c2ccc3c(c2)CC[C@@H](N[C@@H](C)c2ccccc2)C3)cnc1N | 1730 nM |
| Cc1ccc(-c2nc3ccccc3o2)cc1NCc1cc(Cc2ccccc2)ccc1O | 1030 nM |
| CN(C)c1ccc(-c2csc(C(=O)NCC3CCN(Cc4ccc(C(C)(C)C)cc4)C3)c2)cc1 (stereo unspecified) | 986 nM |
| O=c1cc(NCCCNCc2csc(Br)c2Sc2ccc(Cl)cc2)[nH]c2ccccc12 | 849 nM |
| O=C(N[C@H]1CCN(CCc2ccc(O[C@H]3CCNC3)c(Br)c2)C1)c1ccc(Cl)c(Cl)c1 | 658 nM |
| C(=NN=c1cc[nH]c2ccccc12)c1ccncc1 | 743 nM |
